Test results published in US7718679B2, “Heteroaryl carboxamides” (Hoffman-La Roche Inc., priority 2006, dated 2010).

Target: T1, human factor Xa (Homo sapiens, UniProt P00742)
T1 construct: Factor Xa is a serine endopeptidase composed of two disulfide-linked subunits; purchased Enzyme Research Laboratories
Experiment: Factor Xa chromogenic peptide substrate (S-2222) assay
Format: biochemical
Settings: apparent Ki by Cheng-Prusoff from IC50; human factor Xa 3 nM, substrate S-2222, pH 7.8, room temperature
Description: Factor Xa activity was measured spectrophotometrically in microtiter plates in a final volume of 150 μl using the following conditions: Inhibition of human factor Xa (Enzyme Research Laboratories) was tested at an enzyme concentration of 3 nM using the chromogenic substrate S-2222 (Chromogenix AB, Mölndal, Sweden) at 200 nM. The reaction kinetics of the enzyme and the substrate were linear with both time and the enzyme concentration. The inhibitors were dissolved in DMSO and tested at various concentrations up to 100 μM. The inhibitors were diluted using HNPT buffer consisting of HEPES 100 mMM, NaCl 140 mM, PEG 6000 0.1% and Tween 80 0.02%, pH 7.8. […] The velocity of the reaction was determined by the autoreader from the slope of the linear regression fit to 7 time points (1 minute). The initial velocity for each inhibitor concentration was determined by the slope of at least 4 time points in the linear phase by a linear regression fit (mOD/min^2). Apparent dissociation constants Ki were calculated according to Cheng and Prusoff [Cheng, Y. C.; Prusoff, W. H. Relationship between the inhibition constant (Ki) and the concentration of the inhibitor that causes 50 percent inhibition (IC50) of an enzyme reaction. Biochem. Pharmacol. 1973, 22, 3099-3108.] based on the IC50 and the respective Km, determined previously (Ki=IC50/(1+S/Km)). […]

T1 sequence (P00742 235-488 limits assumed): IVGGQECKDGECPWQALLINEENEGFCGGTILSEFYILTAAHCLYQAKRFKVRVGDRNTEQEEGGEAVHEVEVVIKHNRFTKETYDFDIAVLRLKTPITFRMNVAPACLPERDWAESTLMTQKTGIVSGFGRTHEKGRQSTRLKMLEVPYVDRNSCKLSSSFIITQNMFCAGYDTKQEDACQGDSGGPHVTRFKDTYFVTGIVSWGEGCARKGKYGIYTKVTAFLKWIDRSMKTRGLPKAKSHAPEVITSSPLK
T1 sequence (P00742 41-179 partner limits assumed): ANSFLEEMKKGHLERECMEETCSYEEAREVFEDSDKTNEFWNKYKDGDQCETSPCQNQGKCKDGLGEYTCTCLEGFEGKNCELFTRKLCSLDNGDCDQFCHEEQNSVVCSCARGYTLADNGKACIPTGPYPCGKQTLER

Row | Structure (SMILES) | Ki
1 | O=C(Nc1ccc(-n2ccncc2=O)cc1F)c1nc(CNC(=O)c2ccc(Cl)s2)no1 [Example 3, 3-{[(5-chloro-thiophene-2-carbonyl)-amino]-methyl}-[1,2,4]oxadiazole-5-carboxylic acid [2-fluoro-4-(2-oxo-2H-pyrazine-1-yl)-phenyl]-amide] | 0.007 µM
2 | O=C(Nc1ccc(N2CCOCC2=O)cc1)c1nc(CNC(=O)c2ccc(Cl)s2)no1 [Example 5, 3-{[(5-chloro-thiophene-2-carbonyl)-amino]-methyl}-[1,2,4]oxadiazole-5-carboxylic acid [4-(3-oxo-morpholin-4-yl)-phenyl]-amide] | 0.016 µM
